Assay results published in patent US10160767B2 (Institute of Pharmacology and Toxicology Academy of …, priority 2014, dated 2018).
Where a name gives a salt, the structure may show the parent alone.

Experiments:
[1] = Solubility test (Chinese Pharmacopoeia 2010, Part II); assay type: physicochemical; settings: water, thermodynamic from solid
tumor cell A549 = test: Tumor cell inhibition, Cell Titer-Glo cell viability; assay type: cell-based; settings: Homo sapiens, A549 cells, 72 h
Procedure: The activities of example compounds to tumor cell A549 were evaluated.
(§1) Experimental materials: DMEM high-glucose cell culture media (Hyclone Company), fetal calf serum (FBS) (Gibco Company), penicillin and streptomycin were purchased from North China Pharmaceutical Co., Ltd, phosphate buffer saline (PBS) was purchased from Gibco Company, Cell Titer-Glo® cell viability detection reagent was purchased from Promega Company, pancreatin and dimethylsulfoxide (DMSO) were products of Sigma Company. A549 cell line (human lung adenocarcinoma cell line) was purchased from ATCC.
(§2) The cells were inoculated on a 96-well plate with white wall and penetrative bottom (Costar) in amount of 5000 cells per well, cultured at condition of 37° C., 5% CO2 for 24 h. The compounds to be tested were dissolved with DMSO and diluted to 100 mM, to obtain mother liquids of the compounds.
(§3) DMEM culture solution containing 2% FBS was used to diluted the compounds, in which concentration gradients were 3, and concentration range was 100 μM to 3 nM. The compounds in various dilution degrees were added to the cultured cells on the 96-well plate, 100 μl per well. Culture was performed at 37° C., CO2 for 72 h, supernatant was discarded, and cell viability detection test was performed.
(§4) AfterCell Titer-Glo® reaction buffer solution was mixed with isometric substrate, the mixture was added to 96-well plate, 100 μl per well. Cell lysis was induced by horizontally shaking for 4 min. Reaction signal was stabilized by balancing at room temperature for 15 min. Chemiluminescence units in each well of the 96-well plate were detected by using chemiluminescence detector.
(§5) Inhibition rates at different dilution degrees of each compound were calculated according to chemiluminescence value of each well, and Origin 8.0 software was used for S-type curve fitting of each compound, and for calculating EC50 value.

[2] = system: multi-drug resistant tumor cell line MES-SA; test: Inhibition of drug-resistant tumor cell line, Cell Titer-Glo cell viability; therapeutic index against MRC5 cells; assay type: cell-based; settings: Homo sapiens, 72 h
Procedure: The activity of example compounds to multi-drug resistant tumor cell line MES-SA was evaluated.
as §1, with “MES-SA” for “A549”, “uterine sarcoma” for “lung adenocarcinoma”, “ATCC. MRC5 cell (human embryonic lung fibroblast) was purchased from ATCC.” for “ATCC.”
as §2
as §3, with “0.046 μM.” for “3 nM.”
as §4
as §5, with “value. The ratio of EC50 value of compound for MRC5 cell to EC50 value of compound for MES-SA cell was used as therapeutic index for the compound.” for “value.”

| SMILES | solubility [1] [mg/mL] | IC50 (tumor cell A549) [µM] | melting point [°C] | IC50 [2] [µM] |
| --- | --- | --- | --- | --- |
| CO[C@H]1C[C@@H]2CC[C@@H](C)[C@@](O)(O2)C(=O)C(=O)N2CCCC[C@H]2C(=O)O[C@H]([C@H](C)C[C@@H]2CC[C@@H](OC(=O)C[n+]3cccc(C)c3)[C@H](OC)C2)CC(=O)[C@H](C)/C=C(\C)[C@@H](OC(=O)C[n+]2cccc(C)c2)[C@@H](OC)C(=O)[C@H](C)C[C@H](C)/C=C/C=C/C=C/1C.[Br-].[Br-] [Example 9, 31,42-O-carbonylmethyl-(3-methyl-pyridine bromide salt-1-yl)-rapamycin] | 47 | 25.1 | 159 to 162 | 7.21 |
| CO[C@H]1C[C@@H]2CC[C@@H](C)[C@@](O)(O2)C(=O)C(=O)N2CCCC[C@H]2C(=O)O[C@H]([C@H](C)C[C@@H]2CC[C@@H](OC(=O)C[n+]3csc(C)c3C)[C@H](OC)C2)CC(=O)[C@H](C)/C=C(\C)[C@@H](OC(=O)C[n+]2csc(C)c2C)[C@@H](OC)C(=O)[C@H](C)C[C@H](C)/C=C/C=C/C=C/1C.[Br-].[Br-] [Example 4, 31,42-O-carbonylmethyl-(4,5-dimethyl-thiazole bromide salt-3-yl)-rapamycin] | 100 | 6.23 | – | < 0.046 |
| CO[C@H]1C[C@@H]2CC[C@@H](C)[C@@](O)(O2)C(=O)C(=O)N2CCCC[C@H]2C(=O)O[C@H]([C@H](C)C[C@@H]2CC[C@@H](O)[C@H](OC)C2)CC(=O)[C@H](C)/C=C(\C)[C@@H](OC(=O)C[n+]2cscc2C)[C@@H](OC)C(=O)[C@H](C)C[C@H](C)/C=C/C=C/C=C/1C.[Br-] [Example 3, 31-O-carbonylmethyl-(4-methyl-thiazole bromide salt-3-yl)-rapamycin] | – | 3.04 | 130 to 132 | < 0.046 |
| CO[C@H]1C[C@@H]2CC[C@@H](C)[C@@](O)(O2)C(=O)C(=O)N2CCCC[C@H]2C(=O)O[C@H]([C@H](C)C[C@@H]2CC[C@@H](O)[C@H](OC)C2)CC(=O)[C@H](C)/C=C(\C)[C@@H](OC(=O)C[n+]2ccccc2)[C@@H](OC)C(=O)[C@H](C)C[C@H](C)/C=C/C=C/C=C/1C.[Br-] [Example 16, 31-O-carbonylmethyl-(pyridine bromide salt-1-yl)-rapamycin] | – | 57.7 | 140 to 142 | < 0.046 |
| CO[C@H]1C[C@@H]2CC[C@@H](C)[C@@](O)(O2)C(=O)C(=O)N2CCCC[C@H]2C(=O)O[C@H]([C@H](C)C[C@@H]2CC[C@@H](OC(=O)C[n+]3csc(C)c3C)[C@H](OC)C2)CC(=O)[C@H](C)/C=C(\C)[C@@H](O)[C@@H](OC)C(=O)[C@H](C)C[C@H](C)/C=C/C=C/C=C/1C [Example 5, 42-O-carbonylmethyl-(4,5-dimethyl-thiazole bromide salt-3-yl)-rapamycin] | – | 7.4 | – | < 0.046 |
| CO[C@H]1C[C@@H]2CC[C@@H](C)[C@@](O)(O2)C(=O)C(=O)N2CCCC[C@H]2C(=O)O[C@H]([C@H](C)C[C@@H]2CC[C@@H](OC(=O)C[n+]3cscc3C)[C@H](OC)C2)CC(=O)[C@H](C)/C=C(\C)[C@@H](O)[C@@H](OC)C(=O)[C@H](C)C[C@H](C)/C=C/C=C/C=C/1C.[Br-] [Example 2, 42-O-carbonylmethyl-(4-methyl-thiazole bromide salt-3-yl)-rapamycin] | – | 19.3 | 130 to 133 | < 0.046 |

Second part, led by results:

| solubility [1] [mg/mL] | IC50 (tumor cell A549) [µM] | melting point [°C] | SMILES | IC50 [2] [µM] |
| --- | --- | --- | --- | --- |
| 34.5 | 17.4 | 142 to 145 | CO[C@H]1C[C@@H]2CC[C@@H](C)[C@@](O)(O2)C(=O)C(=O)N2CCCC[C@H]2C(=O)O[C@H]([C@H](C)C[C@@H]2CC[C@@H](OC(=O)C[n+]3cscc3C)[C@H](OC)C2)CC(=O)[C@H](C)/C=C(\C)[C@@H](OC(=O)C[n+]2cscc2C)[C@@H](OC)C(=O)[C@H](C)C[C@H](C)/C=C/C=C/C=C/1C.[Br-].[Br-] [Example 1, 31,42-O-carbonylmethyl-(4-methyl-thiazole bromide salt-3-yl)-rapamycin] | < 0.046 |
| – | 52.3 | – | CO[C@H]1C[C@@H]2CC[C@@H](C)[C@@](O)(O2)C(=O)C(=O)N2CCCC[C@H]2C(=O)O[C@H]([C@H](C)C[C@@H]2CC[C@@H](O)[C@H](OC)C2)CC(=O)[C@H](C)/C=C(\C)[C@@H](OC(=O)C[n+]2csc(C)c2C)[C@@H](OC)C(=O)[C@H](C)C[C@H](C)/C=C/C=C/C=C/1C [Example 6, 31-O-carbonylmethyl-(4,5-dimethyl-thiazole bromide salt-3-yl)-rapamycin] | < 0.046 |
| – | 66.3 | 135 to 137 | CO[C@H]1C[C@@H]2CC[C@@H](C)[C@@](O)(O2)C(=O)C(=O)N2CCCC[C@H]2C(=O)O[C@H]([C@H](C)C[C@@H]2CC[C@@H](OC(=O)C[n+]3ccccc3)[C@H](OC)C2)CC(=O)[C@H](C)/C=C(\C)[C@@H](O)[C@@H](OC)C(=O)[C@H](C)C[C@H](C)/C=C/C=C/C=C/1C.[Br-] [Example 10, 42-O-carbonylmethyl-(pyridine bromide salt-1-yl)-rapamycin] | 10.9 |
| 0.1 | 46 | 120 to 124 | CO[C@H]1C[C@@H]2CC[C@@H](C)[C@@](O)(O2)C(=O)C(=O)N2CCCC[C@H]2C(=O)O[C@H]([C@H](C)C[C@@H]2CC[C@@H](OC(=O)C[n+]3cccc(O)c3)[C@H](OC)C2)CC(=O)[C@H](C)/C=C(\C)[C@@H](OC(=O)C[n+]2cccc(O)c2)[C@@H](OC)C(=O)[C@H](C)C[C@H](C)/C=C/C=C/C=C/1C.[Br-].[Br-] [Example 8, 31,42-O-carbonylmethyl-(3-hydroxy-pyridine bromide salt-1-yl)-rapamycin] | < 0.046 |
| – | 51.5 | 146 to 148 | CO[C@H]1C[C@@H]2CC[C@@H](C)[C@@](O)(O2)C(=O)C(=O)N2CCCC[C@H]2C(=O)O[C@H]([C@H](C)C[C@@H]2CC[C@@H](OC(=O)C[n+]3cccc(O)c3)[C@H](OC)C2)CC(=O)[C@H](C)/C=C(\C)[C@@H](O)[C@@H](OC)C(=O)[C@H](C)C[C@H](C)/C=C/C=C/C=C/1C.[Br-] [Example 12, 42-O-carbonylmethyl-(3-hydroxy-pyridine bromide salt-1-yl)-rapamycin] | < 0.046 |
| – | 52.7 | 138 to 140 | CO[C@H]1C[C@@H]2CC[C@@H](C)[C@@](O)(O2)C(=O)C(=O)N2CCCC[C@H]2C(=O)O[C@H]([C@H](C)C[C@@H]2CC[C@@H](O)[C@H](OC)C2)CC(=O)[C@H](C)/C=C(\C)[C@@H](OC(=O)C[n+]2cccc(C)c2)[C@@H](OC)C(=O)[C@H](C)C[C@H](C)/C=C/C=C/C=C/1C.[Br-] [Example 15, 31-O-carbonylmethyl-(3-methyl-pyridine bromide salt-1-yl)-rapamycin] | < 0.046 |
| 120 | 44 | 181 to 183 | CO[C@H]1C[C@@H]2CC[C@@H](C)[C@@](O)(O2)C(=O)C(=O)N2CCCC[C@H]2C(=O)O[C@H]([C@H](C)C[C@@H]2CC[C@@H](OC(=O)C[n+]3ccc(C)cc3)[C@H](OC)C2)CC(=O)[C@H](C)/C=C(\C)[C@@H](OC(=O)C[n+]2ccc(C)cc2)[C@@H](OC)C(=O)[C@H](C)C[C@H](C)/C=C/C=C/C=C/1C.[Br-].[Br-] [Example 14, 31,42-O-carbonylmethyl-(4-methyl-pyridine bromide salt-1-yl)-rapamycin] | < 0.046 |
| 85 | 46.7 | 140 to 142 | CO[C@H]1C[C@@H]2CC[C@@H](C)[C@@](O)(O2)C(=O)C(=O)N2CCCC[C@H]2C(=O)O[C@H]([C@H](C)C[C@@H]2CC[C@@H](OC(=O)C[n+]3ccccc3)[C@H](OC)C2)CC(=O)[C@H](C)/C=C(\C)[C@@H](OC(=O)C[n+]2ccccc2)[C@@H](OC)C(=O)[C@H](C)C[C@H](C)/C=C/C=C/C=C/1C.[Br-].[Br-] [Example 7, 31,42-O-carbonylmethyl-(pyridine bromide salt-1-yl)-rapamycin] | < 0.046 |
